Data from patent US12577201B2, “Glutamine analogs” (Jacobio Pharmaceuticals Co., Ltd., priority 2020, dated 2026).

Assays:
[1] = Body weight of C57BL/6 mice bearing MC38 tumors (Example 11); format: in vivo, Mus musculus; conditions: C57BL/6, MC38, 2 μmol/kg S.C. QD
Description: The treatments were started when the mean tumor size reached 82-129 mm^3 (average tumor size 102 mm^3). Each group contained 6 tumor bearing mice. Group 1 was treated with Vehicle (10% DMSO+90% Saline), S.C., QD. Group 2 was given treatments with compound 2 at 2 μmol/kg, S.C., QD. Group 3 was given treatments with compound 81 at 2 μmol/kg, S.C., QD. Group 4 was given treatments with compound 443 at 2 μmol/kg, S.C., QD. Group 5 was given treatments with compound 459 at 2 μmol/kg, S.C., QD. Group 6 was given treatments with compound 3 at 2 μmol/kg, S.C., QD.
(§1) In vivo efficacy was examined according to absolute tumor growth inhibition (TGI) and the safety was evaluated according to weight change and survival in mice.

[2] = Stability in liver microsomes, mouse; format: in vitro ADME; conditions: 60 minutes, read-out: In vitro Clint
Description: (§2) For metabolic stability, microsomes from human, monkey, dog, rat and mouse were used. For stability, prodrugs (1 μM) were spiked in each microsomes matrix and incubated in an orbital shaker at 37° C. Aliquots of 50 μL were taken from the reaction solution at 0, 15, 30, 45 and 60 min. The reaction was stopped by the addition of 4 volumes of cold acetonitrile with IS (100 nM alprazolam, 200 nM labetalol, 200 nM caffeine and 2 μM ketoprofen). Samples were centrifuged at 3, 220 g for 40 minutes. Aliquot of 100 μL of the supernatant was mixed with 100 μL of ultra-pure H2O and then used for LC-MS/MS analysis.
(§3) For LC-MS/MS, prodrugs were analyzed on an API 4000 instrument from AB Inc (Canada) with an ESI interface coupled to Shimadzu LC system on an Waters XSelect HSS T3 C18, 2.5 m, 2.1×30 mm column.
(§4) For data analysis, peak areas were determined from extracted ion chromatograms. The slope value, k, was determined by linear regression of the natural logarithm of the remaining percentage of the parent drug vs. incubation time curve. The in vitro half-life (in vitro t1/2) was determined from the slope value: in vitro t1/2=−(0.693/k)
(§5) Conversion of the in vitro t1/2 (min) into the in vitro intrinsic clearance (in vitro CLint, in μL/min/mg protein) was done using the following equation (mean of duplicate determinations): […]

MC38 tumor cells [3] = test: Anti-tumor efficacy in MC38 model in CES1c -/- mouse (Example 10); format: in vivo; conditions: for TV (mm^3) (Mean ± SEM) D6 / TV (mm^3) (Mean ± SEM) D9 / TV (mm^3) (Mean ± SEM) D12 / TV (mm^3) (Mean ± SEM) D15 / TV (mm^3) (Mean ± SEM) D20 / TV (mm^3) (Mean ± SEM) D23 / T/C (%) / TGI (%) / TV (mm^3) (Mean ± SEM) D26: MC38, 2 μmol/kg S.C. QD; for T/C (%) / TGI (%) / TV (mm^3) (Mean ± SEM) D26 / TV (mm^3) at D26 (Mean ± SEM): D26; for TV (mm^3) at D26 (Mean ± SEM): Table 9, MC38, 2 μmol/kg S.C. QD
Description: Animal species: Mus musculus; Strain: C57BL/6-Ces1c^emISmoc; Age: 6-8 weeks; Sex: female. (Shanghai Model Organisms). The MC38 tumor cells were maintained in vitro in DMEM medium supplemented with 10% FBS at 37° C., 5% CO2. The cells growing in an exponential growth phase were harvested and counted for tumor inoculation. The culture MC38 were harvested, re-suspended in PBS containing 50% Matrigel at a density of 1×10^7 cells/mL. Each mouse was inoculated subcutaneously in the right flank region with 1×10^6 in 0.1 mL of PBS containing 50% Matrigel for tumor development.
The treatments were started when the mean tumor size reached 52-132 mm^3 (average tumor size 95 mm^3). Each group contained 5 tumor bearing mice. Group 1 was treated with Vehicle (10% DMSO+90% Saline), S.C., QD(Subcutaneous injection, quaque die).
as §1
(§6) Statistical analysis of difference in tumor volume among the groups was performed using one-way ANOVA followed by individual comparisons using Games-Howell post-hoc test (equal variance not assumed). All data was analyzed using SPSS 22.0 software.

[4] = Stability in liver microsomes, human; format: in vitro ADME; conditions: 60 minutes, read-out: In vitro Clint
Description: as §2, §3, §4, §5

MC38 tumor cells [5] = test: Anti-tumor efficacy in MC38 model in C57BL/6 mouse (Example 11); format: in vivo; conditions: C57BL/6, MC38, 2 μmol/kg S.C. QD
Description: Animal species: Mus musculus; Strain: C57BL/6; Age: 6-8 weeks; Sex: female. The MC38 tumor cells were maintained in vitro in DMEM medium supplemented with 10% FBS at 37° C., 5% CO2. The cells growing in an exponential growth phase were harvested and counted for tumor inoculation. The culture MC38 were harvested, re-suspended in PBS containing 50% Matrigel at a density of 1×10^7 cells/mL. Each mouse was inoculated subcutaneously in the right flank region with 1×10^6 cells in 0.1 mL of PBS containing 50% Matrigel for tumor development.
The treatments were started when the mean tumor size reached 82-129 mm^3 (average tumor size 102 mm^3). Each group contained 6 tumor bearing mice. Group 1 was treated with Vehicle (10% DMSO+90% Saline), S.C., QD.
as §1, §6

[6] = Solubility in water, remark in the synthesis example; format: physicochemical; conditions: remark on the isolated product

| SMILES | microsomal CLint at 1 μM [2] [µL/min/mg] | TV (mm^3) (Mean ± SEM) D6 (MC38 tumor cells [3]) | TV (mm^3) (Mean ± SEM) D9 (MC38 tumor cells [3]) | TV (mm^3) (Mean ± SEM) D12 (MC38 tumor cells [3]) | TV (mm^3) (Mean ± SEM) D15 (MC38 tumor cells [3]) | TV (mm^3) (Mean ± SEM) D20 (MC38 tumor cells [3]) | TV (mm^3) (Mean ± SEM) D23 (MC38 tumor cells [3]) | T/C (%) (MC38 tumor cells [3]) | TGI (%) (MC38 tumor cells [3]) | TV (mm^3) (Mean ± SEM) D26 (MC38 tumor cells [3]) | TV (mm^3) at D26 (Mean ± SEM) (MC38 tumor cells [3]) [mm^3] | microsomal CLint at 1 μM [4] [µL/min/mg] | further results |
| --- | --- | --- | --- | --- | --- | --- | --- | --- | --- | --- | --- | --- | --- |
| CO[C@@H](C)C(=O)N[C@@H](CCC(=O)C=[N+]=[N-])C(=O)OC(C)C [Compound 2, isopropyl (S)-6-diazo-2-((S)-2-methoxypropanamido)-5-oxohexanoate] | 67.1 | 95 ± 11 | 193 ± 20 | 103 ± 15 | 131 ± 21 | 169 ± 19 | 219 ± 21 | 14.0 | 86.0 | 313 ± 35 | 313 ± 35 | 43.4 | BW(g) (Mean ± SEM) Beginning (D6) ([1]; D6): 19.8 ± 0.2 g; BW Change (%) ([1]; D6 to D20): +6.4%; BW(g) (Mean ± SEM) End (D20) ([1]; D20): 21.1 ± 0.3 g; T/C (%) (MC38 tumor cells [5]; Example 11): 17.5%; TGI (%) (MC38 tumor cells [5]; Example 11): 82.5%; TV (mm^3) (Mean ± SEM) D6 (MC38 tumor cells [5]; Example 11, D6): 102 ± 7 mm^3; TV (mm^3) (Mean ± SEM) D10 (MC38 tumor cells [5]; Example 11, D10): 167 ± 17 mm^3; TV (mm^3) (Mean ± SEM) D13 (MC38 tumor cells [5]; Example 11, D13): 257 ± 51 mm^3; TV (mm^3) (Mean ± SEM) D17 (MC38 tumor cells [5]; Example 11, D17): 306 ± 43 mm^3; TV (mm^3) (Mean ± SEM) D20 (MC38 tumor cells [5]; Example 11, D20): 407 ± 33 mm^3; TV (mm^3) at D21 (Mean ± SEM) (MC38 tumor cells [5]; Table 13, D21): 407 ± 33 mm^3; solubility in water [6]: easily dissolved in water |
| CC(=O)N[C@@H](Cc1c[nH]c2ccccc12)C(=O)N[C@@H](CCC(=O)C=[N+]=[N-])C(=O)OC(C)C [Reference compound A, reference compound] | 153 | 95 ± 6 | 275 ± 33 | 147 ± 5 | 195 ± 23 | 196 ± 33 | 183 ± 33 | 12.3 | 87.7 | 274 ± 81 | 274 ± 81 | 119 | – |
